Experimental findings from US10941121B2 (AZIENDA OSPEDALIERA UNIVERSITARIA SENESE, priority 2015, dated 2021) are described below.

The subject of series [1] is Hepatitis C Virus (HCV) replicon system. As to the kind of experiment: HCV replicon system, luciferase method in LucUbiNeo-ET cells.
The nature of series [2]: Cytotoxicity in PBMC, CellTiter 96 MTS viability assay. In kind it is cell-based. As to conditions: human, human primary PBMCs.
Series [3] is described as follows: Parallel Artificial Membrane Permeability Assay (PAMPA). In kind it is in vitro ADME.
Series [4] is described as follows: Cytotoxicity, MTT method in HuH7.5 cells. Type of series: cell-based. As to conditions: human, non-infected, read-out: HCV CC50. The protocol:
After 4 h of incubation at 37° C. in a humidified atmosphere with 5% CO2, the amount of formazan produced was quantified spectrophotometrically at 550/620 nm (C. Pannecouque et al, Nature protocol 2008; 3 (3): 427-434). […] These assays were done in duplicate.

The nature of series [5]: Cytotoxicity in the JEV cell culture system. As to conditions: hamster.

For the compound `CCCCc1cn(-c2ccc(NC(=O)Nc3ccccc3C)cc2)nn1` [Compound 20a, 1-(4-(4-butyl-1H-1,2,3-triazol-1-yl)phenyl)-3-o-tolylurea], in series [1], the “activity against HCV, in words” value was “best activity”. The EC50 in series [1] (Hepatitis C virus, 48 h, read-out: EC50 (μM) HCV replicon system) came out at 0.97 µM. In series [2] (24 h), this compound gave a CC50 at 24 h greater than 1000 µM. In series [2] (48 h), this compound showed a CC50 at 48 h greater than 1000 µM. Besides, the CC50 at 72 h in series [2] (72 h) is greater than 1000 µM. In addition, in series [3] (PAMPA, phosphatidylcholine in dodecane, pH 7.4, 5 h, room temperature, read-out: PAMPA Papp *10^−6 (cm/s) GI), the Papp at 5 h, 0.5 mM was 2.86 ×10⁻⁶ cm/s. Further, the “PAMPA membrane retention (RM %)” value in series [3] (value in brackets in the PAMPA cell) worked out at 19.1%. Further, the CC50 in series [4] is 10.1 µM; in series [5], greater than 50 µM.
